Experiment: xn = mol fraction of the nth substance listed
Settings: 101 kPa

CCO + CC(=O)[O-].CC[n+]1ccn(C)c1
x1 = 1
Settings	viscosity [mPa·s]
298.15 K	1.09
313.15 K	0.83
328.15 K	0.64
343.15 K	0.5

O + CC(=O)[O-].CC[n+]1ccn(C)c1
x1 = 1
Settings	viscosity [mPa·s]
328.15 K	0.51
343.15 K	0.41

CC(=O)[O-].CC[n+]1ccn(C)c1 + CCO
viscosity [mPa·s]
Settings	298.15 K	313.15 K	328.15 K	343.15 K
x2 = 0	132.9	57.7	–	18.1
x2 = 0.1059	92.3	–	24.1	–
x2 = 0.1638	75	36.9	21.14	13.51
x2 = 0.2471	54.2	–	17.22	11.24
x2 = 0.3504	35.2	20.3	12.77	–
x2 = 0.4165	26.5	16.06	10.47	–
x2 = 0.4824	19.82	12.48	8.44	6.05
x2 = 0.5572	14.11	–	6.48	4.76
x2 = 0.6646	8.27	5.79	4.27	3.27
x2 = 0.7494	5.35	–	2.96	2.33
x2 = 0.8666	–	2.02	1.59	1.28

CC[n+]1ccn(C)c1.N#C[N-]C#N + CCO
viscosity [mPa·s]
Settings	298.15 K	313.15 K	328.15 K	343.15 K
x2 = 0	14.9	–	–	5.48
x2 = 0.102	12.69	8.69	6.32	4.85
x2 = 0.1981	10.8	7.53	5.5	–
x2 = 0.279	9.27	6.58	4.86	3.81
x2 = 0.3596	7.85	–	–	3.37
x2 = 0.4741	6.04	4.45	3.47	2.76
x2 = 0.6028	–	3.31	2.59	2.13
x2 = 0.6867	3.47	2.65	2.09	1.7
x2 = 0.7678	–	2.1	1.67	1.37
x2 = 0.8503	2.08	1.63	1.3	1.1
x2 = 0.9327	1.53	1.19	0.93	0.75

CCO + CC[n+]1ccn(C)c1.N#C[N-]C#N
x1 = 1
Settings	viscosity [mPa·s]
298.15 K	1.09
343.15 K	0.5

O + CC[n+]1ccn(C)c1.N#C[N-]C#N
Settings	viscosity [mPa·s]
298.15 K, x1 = 1	0.89

CC(=O)[O-].CC[n+]1ccn(C)c1 + O
viscosity [mPa·s]
Settings	298.15 K	313.15 K	328.15 K	343.15 K
x2 = 0	–	57.7	30.3	18.1
x2 = 0.0992	–	49.5	–	16.46
x2 = 0.222	89.2	42.3	23.49	–
x2 = 0.3233	73	36	20.48	13.21
x2 = 0.4207	–	30.2	–	11.11
x2 = 0.5408	–	–	13.85	–
x2 = 0.6135	–	19.09	11.44	7.48
x2 = 0.6805	28.8	15.63	–	–
x2 = 0.7482	21.9	11.99	7.32	4.87
x2 = 0.8134	15.44	8.51	–	3.57
x2 = 0.9067	6.16	3.74	2.54	1.81

CC[n+]1ccn(C)c1.N#C[N-]C#N + O
viscosity [mPa·s]
Settings	298.15 K	313.15 K	328.15 K	343.15 K
x2 = 0	–	10.07	7.26	–
x2 = 0.1299	12.78	8.71	6.33	4.84
x2 = 0.2248	–	–	5.65	4.34
x2 = 0.3042	–	7.04	5.11	3.94
x2 = 0.4308	–	5.8	4.3	3.33
x2 = 0.5429	6.96	4.81	3.58	2.78
x2 = 0.6534	5.41	3.81	2.84	2.23
x2 = 0.7355	4.41	3.11	2.32	1.8
x2 = 0.7944	–	2.56	–	1.48
x2 = 0.8803	–	–	1.31	1.04
x2 = 0.953	1.47	–	0.82	0.66

— a compilation of properties of binary mixtures (doi:10.1016/j.jct.2012.02.027)
